A word on the MIC: it is the lowest concentration that inhibits growth of the organism. Low readings indicate inhibition by little substance, high ones a need for much substance.

In brackets after ≈: the same amount, converted by molar mass.

Holding throughout (type): functional
Assay [1] concerns Staphylococcus aureus. In words: Antibacterial activity against Staphylococcus aureus SA-1199B norA++ and A116E GrlA mutation by microdilution technique. In general terms: Broth dilution looks for growth in wells or tubes with falling amounts of substance.
A further assay relates to Escherichia coli. Nature of the assay: Antibacterial activity against Escherichia coli ATCC 25922 by microdilution technique.
Assay [2] has as its system Staphylococcus aureus. In words: Antibacterial activity against Staphylococcus aureus SA-K1904 bearing norA++ efficient mutation by microdilution technique.
Assay [3] relates to Staphylococcus aureus. Nature of the assay: Antibacterial activity against Staphylococcus aureus SA-K1902 bearing norA- deficient mutation by microdilution technique.
Assay [4] relates to Staphylococcus aureus. Nature of the assay: Antibacterial activity against Staphylococcus aureus ATCC 25923 by microdilution technique.
For assay [5], the system named is Staphylococcus aureus. In words: Antibacterial activity against methicillin and ciprofloxacin-resistant Staphylococcus aureus 25A by microdilution technique.
The subject of assay [6] is Staphylococcus aureus. In words: Antibacterial activity against wild-type norA expressing Staphylococcus aureus SA-1199 by microdilution technique.
For assay [7], the system named is Staphylococcus aureus. Nature of the assay: Antibacterial activity against Staphylococcus aureus K1035 bearing wild-type GyrA and S80F mutant GrlA by microdilution technique.
For assay [8], the system named is Staphylococcus aureus. Nature of the assay: Antibacterial activity against Staphylococcus aureus K1628 bearing S84L mutant GyrA and S80F mutant GrlA by microdilution technique.
Assay [9] relates to Staphylococcus aureus. Nature of the assay: Antibacterial activity against Staphylococcus aureus K1640 bearing S84L mutant GyrA and S80Y mutant GrlA by microdilution technique.
The test system of assay [10] is Staphylococcus aureus. Nature of the assay: Antibacterial activity against Staphylococcus aureus K1134 bearing wild-type GyrA and S80Y mutant GrlA by microdilution technique.
For assay [11], the system named is Staphylococcus aureus. Nature of the assay: Antibacterial activity against Staphylococcus aureus K1305 bearing wild-type GyrA and E84K mutant GrlA by microdilution technique.

Regarding `CO/N=C1/C2=C(CCN(c3cc4c(cc3N)c(=O)c(C(=O)O)cn4C3CC3)C2)SCC1C` (stereo unspecified), the MIC in the assay with Staphylococcus aureus [1] was 6.25 µg/mL (≈ 13.7 µM); in the assay on Escherichia coli it was 128 µg/mL (≈ 282 µM); against Staphylococcus aureus [2], 3.13 µg/mL (≈ 6.89 µM); with Staphylococcus aureus [3] it was 3.13 µg/mL (≈ 6.89 µM); in the assay with Staphylococcus aureus [4] it was 4 µg/mL (≈ 8.8 µM); against Staphylococcus aureus [5] it was 4 µg/mL (≈ 8.8 µM). The same molecule came in with an MIC in the assay on Staphylococcus aureus [6] of 6.25 µg/mL (≈ 13.7 µM).

Consider `Cc1c(N2CCc3ccccc3C2)c(N)cc2c(=O)c(C(=O)O)cn(C3CC3)c12`, for which the MIC with Staphylococcus aureus [1] is not above 0.02 µg/mL; against Escherichia coli, not above 0.12 µg/mL; against Staphylococcus aureus [2], not above 0.02 µg/mL; with Staphylococcus aureus [3], not above 0.02 µg/mL; in the assay on Staphylococcus aureus [7], not above 0.02 µg/mL; in the assay on Staphylococcus aureus [4] it was not above 0.12 µg/mL. Besides, the MIC was 1.25 µg/mL (≈ 3.21 µM) in the assay on Staphylococcus aureus [8]; 0.63 µg/mL (≈ 1.62 µM) against Staphylococcus aureus [9]; not above 0.02 µg/mL in the assay on Staphylococcus aureus [10]; not above 0.02 µg/mL against Staphylococcus aureus [11]; not above 0.12 µg/mL against Staphylococcus aureus [5]; not above 0.02 µg/mL against Staphylococcus aureus [6].

As to `Cc1c(N2CCC3=C(C2)C(O)CCS3)c(N)cc2c(=O)c(C(=O)O)cn(C3CC3)c12` (stereo unspecified), the MIC in the assay with Staphylococcus aureus [1] was more than 100 µg/mL; in the assay on Escherichia coli, more than 128 µg/mL; in the assay with Staphylococcus aureus [2] it was more than 100 µg/mL; against Staphylococcus aureus [3], more than 100 µg/mL; in the assay with Staphylococcus aureus [4] it was more than 128 µg/mL; against Staphylococcus aureus [5], more than 128 µg/mL. Also, the MIC in the assay on Staphylococcus aureus [6] is more than 100 µg/mL.

For the molecule `Cc1c(N2CCC3=C(C2)C(=O)C(C)CS3)c(N)cc2c(=O)c(C(=O)O)cn(C3CC3)c12` (stereo unspecified), the MIC against Staphylococcus aureus [1] turned out to be 0.31 µg/mL (≈ 0.705 µM); with Escherichia coli, 64 µg/mL (≈ 146 µM); against Staphylococcus aureus [2], 0.16 µg/mL (≈ 0.364 µM); against Staphylococcus aureus [3], 0.16 µg/mL (≈ 0.364 µM); against Staphylococcus aureus [7], 1.25 µg/mL (≈ 2.84 µM); against Staphylococcus aureus [4] it was 0.08 µg/mL (≈ 0.182 µM). In addition, the MIC in the assay with Staphylococcus aureus [8] is more than 10 µg/mL; with Staphylococcus aureus [9], more than 10 µg/mL; with Staphylococcus aureus [10], 1.25 µg/mL (≈ 2.84 µM); against Staphylococcus aureus [11], 1.25 µg/mL (≈ 2.84 µM); against Staphylococcus aureus [5] it was 32 µg/mL (≈ 72.8 µM); against Staphylococcus aureus [6] it was 0.16 µg/mL (≈ 0.364 µM).

`CO/N=C1\CCSC2=C1CN(c1cc3c(cc1N)c(=O)c(C(=O)O)cn3C1CC1)CC2`: the MIC against Staphylococcus aureus [1] was 12.5 µg/mL (≈ 28.4 µM); against Escherichia coli it was 16 µg/mL (≈ 36.3 µM); in the assay on Staphylococcus aureus [2] it was 3.13 µg/mL (≈ 7.11 µM); in the assay on Staphylococcus aureus [3] it was 1.56 µg/mL (≈ 3.54 µM); in the assay with Staphylococcus aureus [4] it was 2 µg/mL (≈ 4.54 µM); against Staphylococcus aureus [5] it was 8 µg/mL (≈ 18.2 µM). In the assay on Staphylococcus aureus [6], the MIC worked out at 3.13 µg/mL (≈ 7.11 µM).

Take `O=C(O)c1cn(C2CC2)c2cc(N3CCC4=C(C3)/C(=N/O)CCS4)c(F)cc2c1=O`: the MIC with Staphylococcus aureus [1] was 2.5 µg/mL (≈ 5.82 µM); with Escherichia coli, 1 µg/mL (≈ 2.33 µM); in the assay with Staphylococcus aureus [2] it was 0.63 µg/mL (≈ 1.47 µM); in the assay with Staphylococcus aureus [3], 0.63 µg/mL (≈ 1.47 µM); in the assay with Staphylococcus aureus [4], 2 µg/mL (≈ 4.66 µM); with Staphylococcus aureus [5], 2 µg/mL (≈ 4.66 µM). This molecule came in with an MIC against Staphylococcus aureus [6] of 0.63 µg/mL (≈ 1.47 µM).

As to `Cc1c(N2CCC3=C(C2)/C(=N/O)C(C)CS3)c(N)cc2c(=O)c(C(=O)O)cn(C3CC3)c12` (stereo unspecified), the MIC is 1.25 µg/mL (≈ 2.75 µM) in the assay on Staphylococcus aureus [1]; 0.5 µg/mL (≈ 1.1 µM) with Escherichia coli; 0.31 µg/mL (≈ 0.682 µM) against Staphylococcus aureus [2]; 0.31 µg/mL (≈ 0.682 µM) in the assay on Staphylococcus aureus [3]; 0.16 µg/mL (≈ 0.352 µM) in the assay with Staphylococcus aureus [4]; 8 µg/mL (≈ 17.6 µM) against Staphylococcus aureus [5]. The minimal inhibitory concentration (MIC) against Staphylococcus aureus [6] amounted to 0.31 µg/mL (≈ 0.682 µM).

For the molecule `CC1CSC2=C(CN(c3cc4c(cc3N)c(=O)c(C(=O)O)cn4C3CC3)CC2)/C1=N/O` (stereo unspecified), the MIC against Staphylococcus aureus [1] came out at 6.25 µg/mL (≈ 14.2 µM); against Escherichia coli, 32 µg/mL (≈ 72.6 µM); against Staphylococcus aureus [2] it was 3.13 µg/mL (≈ 7.11 µM); with Staphylococcus aureus [3], 1.56 µg/mL (≈ 3.54 µM); in the assay with Staphylococcus aureus [4], 6.25 µg/mL (≈ 14.2 µM); against Staphylococcus aureus [5] it was 32 µg/mL (≈ 72.6 µM). This molecule also yielded an MIC in the assay with Staphylococcus aureus [6] of 1.56 µg/mL (≈ 3.54 µM).

For the molecule `Nc1cc2c(=O)c(C(=O)O)cn(C3CC3)c2cc1N1CCC2=C(C1)C(O)CCS2` (stereo unspecified), the MIC in the assay with Staphylococcus aureus [1] was more than 100 µg/mL; against Escherichia coli it was 128 µg/mL (≈ 310 µM); with Staphylococcus aureus [2] it was 25 µg/mL (≈ 60.5 µM); against Staphylococcus aureus [3], 12.5 µg/mL (≈ 30.2 µM); against Staphylococcus aureus [4] it was 16 µg/mL (≈ 38.7 µM); in the assay with Staphylococcus aureus [5], 128 µg/mL (≈ 310 µM). Besides, the MIC against Staphylococcus aureus [6] amounted to 25 µg/mL (≈ 60.5 µM).

As for `Cc1c(N2CCC3=C(C2)/C(=N/O)CCS3)c(N)cc2c(=O)c(C(=O)O)cn(C3CC3)c12`, the MIC against Staphylococcus aureus [1] is 2.5 µg/mL (≈ 5.68 µM); against Escherichia coli it was 0.5 µg/mL (≈ 1.14 µM); against Staphylococcus aureus [2], 0.63 µg/mL (≈ 1.43 µM); against Staphylococcus aureus [3] it was 0.63 µg/mL (≈ 1.43 µM); in the assay on Staphylococcus aureus [4], 0.31 µg/mL (≈ 0.704 µM); against Staphylococcus aureus [6], 0.63 µg/mL (≈ 1.43 µM).

For `CO/N=C1/C2=C(CCN(c3c(N)cc4c(=O)c(C(=O)O)cn(C5CC5)c4c3C)C2)SCC1C` (stereo unspecified), the MIC against Staphylococcus aureus [1] worked out at 3.13 µg/mL (≈ 6.68 µM); against Escherichia coli, 8 µg/mL (≈ 17.1 µM); against Staphylococcus aureus [2] it was 6.25 µg/mL (≈ 13.3 µM); against Staphylococcus aureus [3], 6.25 µg/mL (≈ 13.3 µM); in the assay with Staphylococcus aureus [4], 16 µg/mL (≈ 34.1 µM); in the assay with Staphylococcus aureus [5], 8 µg/mL (≈ 17.1 µM). In the assay with Staphylococcus aureus [6], inhibition of growth (MIC) required 3.13 µg/mL (≈ 6.68 µM).

For the origin of these results see ChEMBL document CHEMBL1155486, “From 6-aminoquinolone antibacterials to 6-amino-7-thiopyranopyridinylquinolone ethyl esters as inhibitors of Staphylococcus aureus multidrug efflux pumps” (2010).
